Measurements: US20170119033A1, “METHOD OF IMPROVING STABILITY OF SWEET ENHANCER AND COMPOSITION CONTAINING STABILIZED SWEET ENHANCER” (Senomyx, Inc., priority 2016, published 2017)
Entries after “also recorded” stand apart in the source; their conditions may differ.

Experiment: Photostability test in Q-Sun Xenon Test Chamber (accelerated photodegradation), LC/MSD quantitation
Assay type: physicochemical
Conditions: for percent Compound 1 remaining: 10 ppm; for effect of sorbate on photostability: 250 ppm potassium sorbate versus no photostabilizer; for effect of sorbate on photostability / rate of degradation, trend with pH: 10 ppm Compound 1 or 5 ppm Compound 2; for rate of degradation, trend with pH: no photostabilizer, pH 2.8, 4.0, 5.0, 7.1; for percent Compound 2 remaining: 5 ppm
Procedure: Aqueous buffer solution at pH 7.1 contains 50 mM potassium dihydogen phosphate and ˜32 mM sodium hydroxide (solutions of 1.0 M hydrochloric acid and 1.0 M sodium hydroxide are used to adjust pH). Aqueous buffer solution at pH 4.0 contains 50 mM citric acid monosodium salt and ˜7.4 mM sodium hydroxide (solutions of 1.0 M hydrochloric acid and 1.0 M sodium hydroxide are used to adjust pH). Aqueous buffer solution at pH 2.8 contains 50 mM citric acid and ˜16 mM sodium hydroxide (solutions of 1.0 M hydrochloric acid and 1.0 M sodium hydroxide are used to adjust pH). Aqueous buffer solution at pH 5.0 contains 50 mM acetic acid and ˜32 mM sodium hydroxide (solutions of 1.0 M hydrochloric acid and 1.0 M sodium hydroxide are used to adjust pH). All the buffers also contained 30 ppm ethylenediaminetetraacetic acid (EDTA).
The stock solutions of the test compounds at 10 mM for compound I and at 2000 ppm for compound II are made by dissolving the compounds in ethanol and water with 0.2% sodium bicarbonate, respectively. The solutions of the stabilizers are made by dissolving the materials in the aqueous buffers. The stock solutions are then diluted to 5 or 10 ppm with the stabilizer solutions to prepare the test solution and 10-mL aliquots of the solutions are transferred to 20-mL clear glass vial for testing.
Accelerated photodegradation was studied using a Q-Sun Xenon Test Chamber (Q-Lab Model No. Xe-1-SC) at an irradiance setting of 350 mW/m^2 at 340 nm and temperature of 25 degrees Celsius. To put this in perspective, 24 hours of constant Q-Sun irradiation at these settings is approximately equivalent to 12.4 days of direct sunlight in the southwestern United States. At 0, 1, 2, 4, 6 and 24 hours from the beginning of the radiation, a 0.4-mL aliquot from each vial is pippeted out to a 1-mL glass insert for analysis.
The samples are analyzed using an Agilent 1290 LC/MSD equipped with a diode-array detector (DAD). The peak areas from the MSD chromatograms are used for quantitation, and the photostability is shown by plotting the percentages of the test compound which remains intact at all time points. The peak areas from the DAD chromatograms are used for quantitation for stabilizers with concentration at […] or higher. The instrument conditions are listed below. • Column: Water Acquity HSS T3 C18 1.8 μm, 2.1×30 mm • Column Temperature: 30° C. • Auto-sampler Temperature: Room temperature • Mobile Phase A: 0.1% formic acid in water • Mobile Phase B: 0.1% formic acid in acetonitrile • Gradient: 0-1 min, linear gradient 5-50% B; 1.0-1.2 min, linear gradient 50-100% B; 1.2-2.0 min, 100% B; flow rate is 1.2 mL/min, and Post time is 0.5 min. • Injection volume: 10 uL • MSD ion source: APCI • MSD Signal settings: Positive, selected ion monitoring (SIM) at the mass of the expected molecular ions. • UV detection wavelength: 230 nm. • MSD detection start time: 0.65 min
A Q-Sun Xenon Test Chamber (Q-Lab Model No. Xe-1-SC), which reproduces the entire spectrum of natural sunlight, was used to study the photostability of Compound 1 in various mediums (with or without photostabilizers). The equivalent sunlight exposure time for 24 hours in the Q-Sun at a constant temperature of 25° C. and irradiance of 450 mW/m^2 @ 340 nm is estimated to be equivalent to approximately 15.9 days of direct sunlight in the Southwestern United States.
A Q-Sun Xenon Test Chamber (Q-Lab Model No. Xe-1-SC), which reproduces the entire spectrum of natural sunlight, was used to study the photostability of Compound 2 in various mediums (with or without photostabilizers). The equivalent sunlight exposure time for 24 hours in the Q-Sun at a constant temperature of 25° C. and irradiance of 450 mW/m^2 @ 340 nm is estimated to be equivalent to approximately 15.9 days of direct sunlight in the Southwestern United States.

[1] = 250 ppm potassium sorbate, pH 4.0, after 4 hours exposure
[2] = absence of photostabilizer, pH 7.1, after 4 hours exposure
[3] = absence of sorbate, pH 2.8, after 4 hours exposure
[4] = absence of sorbate, pH 4.0, after 4 hours exposure

Row | Structure (SMILES) | percentage of Compound 1 remaining (10 ppm Compound 1, no photostabilizer, all pH values (2.8, 4.0, 5.0, 7.1), after 4 hours light exposure, 25° C.) | percent Compound 1 remaining [1] | percent Compound 1 remaining [2] | percent Compound 1 remaining [3] | percent Compound 1 remaining [4] | effect of sorbate on photostability | rate of degradation, trend with pH | percentage of Compound 2 remaining (5 ppm Compound 2, no photostabilizer, all pH values (2.8, 4.0, 5.0, 7.1), after 4 hours light exposure, 25° C.) | percent Compound 2 remaining [1] | percent Compound 2 remaining (250 ppm potassium sorbate, pH 5.0, after 4 hours exposure) | percent Compound 2 remaining [2] | percent Compound 2 remaining [3] | percent Compound 2 remaining [4]
1 | CCCNC(=O)C(C)(C)COc1cccc2c1C(N)=NS(=O)(=O)N2 [Compound 1, 3-(4-Amino-2,2-dioxide-1H-benzo[c][1,2,6]thiadiazin-5-yloxy)-2′,2′-dimethyl-N-propylpropanamide] | less than 20% | about 47% | no compound remained | about 14% | about 10% | remarkably improved stability to photo-degradation; also recorded: significantly enhances the photostability | decreases with decreasing pH |  |  |  |  |  | 
2 | CC(C)CC(=O)N1CCC[C@H](COc2cccc3c2C(N)=NS(=O)(=O)N3)C1 [Compound 2, (S)-1-(3-(((4-amino-2,2-dioxido-1H-benzo[c][1,2,6]thiadiazin-5-yl)oxy)methyl)piperidin-1-yl)-3-methylbutan-1-one] |  |  |  |  |  | remarkably improved stability to photo-degradation; also recorded: significantly enhances the photostability | decreases with decreasing pH | less than 20% | about 42% | about 15% | no compound remained | about 15% | about 5%
